Test results from ChEMBL document CHEMBL1154509, “Synthesis and in vitro biological activity of retinyl polyhydroxybenzoates, novel hybrid retinoid derivatives” (Bioorg Med Chem Lett, 2009).

Legend:
[1] = Toxicity against human dermal fibroblasts assessed as cell viability at 1 uM relative to control; type: cell-based, Fibroblast; conditions: read-out: Activity
[2] = biological target: T1, Tyrosinase (Mus musculus) (UniProt P11344); assay: Inhibition of tyrosinase activity in mouse B16/F10 cells at 5 uM relative to control; type: cell-based
T1 sequence (whole entry): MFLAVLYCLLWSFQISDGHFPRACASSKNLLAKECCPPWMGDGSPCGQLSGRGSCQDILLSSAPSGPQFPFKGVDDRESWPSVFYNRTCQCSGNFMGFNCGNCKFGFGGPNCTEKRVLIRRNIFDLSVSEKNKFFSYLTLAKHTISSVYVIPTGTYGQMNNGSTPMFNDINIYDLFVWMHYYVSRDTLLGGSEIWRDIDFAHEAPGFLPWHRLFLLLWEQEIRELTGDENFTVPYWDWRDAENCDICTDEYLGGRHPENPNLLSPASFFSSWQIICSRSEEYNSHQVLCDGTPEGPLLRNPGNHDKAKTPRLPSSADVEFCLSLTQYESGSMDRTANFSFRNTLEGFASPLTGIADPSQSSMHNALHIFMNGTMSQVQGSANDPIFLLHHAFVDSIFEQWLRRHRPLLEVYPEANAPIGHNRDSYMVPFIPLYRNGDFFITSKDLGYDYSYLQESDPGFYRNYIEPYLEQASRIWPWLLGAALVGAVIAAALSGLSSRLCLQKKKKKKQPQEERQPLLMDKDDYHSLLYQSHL

[3] = Anti-aging activity in human dermal fibroblasts assessed as inhibition rate of MMP1 expression at 1 uM relative to control; type: functional; conditions: Fibroblast
[4] = Anti-aging activity in human dermal fibroblasts assessed as rate of procollagen formation at 0.0005 weight % concentration relative to retinol; type: functional, Fibroblast
[5] = Toxicity against mouse B16/F10 cells assessed as cell viability at 5 uM relative to control; type: cell-based; conditions: read-out: Activity
[6] = Toxicity against human dermal fibroblasts; type: cell-based, Fibroblast
B16-F10 [7] = assay: Inhibition of rate of melanin formation in mouse B16/F10 cells at 5 uM relative to control; type: functional
[8] = Anti-aging activity in human dermal fibroblasts assessed as expression rate of procollagen type 1 formation at 1 uM relative to control; type: functional, Fibroblast
Fibroblast [9] = assay: Skin whitening activity in […] assessed as inhibition of melanin formation at 0.001 weight % concentration relative to resveratrol; type: functional
[10] = Anti-aging activity in human dermal fibroblasts assessed as rate of procollagen formation at 0.001 weight % concentration relative to retinol; type: functional, Fibroblast
[11] = Anti-aging activity in human dermal fibroblasts assessed as inhibition rate of MMP1 expression at 10 uM relative to control; type: functional; conditions: Fibroblast
[12] = Toxicity against human dermal fibroblasts assessed as cell viability at 10 uM relative to control; type: cell-based, Fibroblast; conditions: read-out: Activity
[13] = Anti-aging activity in human dermal fibroblasts assessed as expression rate of procollagen type 1 formation at 10 uM relative to control; type: functional, Fibroblast
[14] = Anti-aging activity in human dermal fibroblasts assessed as rate of procollagen formation at 0.002 weight % concentration relative to retinol; type: functional, Fibroblast
Fibroblast [15] = assay: Skin whitening activity in […] assessed as inhibition of melanin formation at 0.002 weight % concentration relative to resveratrol; type: functional
Fibroblast [16] = assay: Inhibition of melanogenesis in […] at 5 uM; type: functional
[17] = biological target: T2, Tyrosinase (Homo sapiens) (UniProt P14679); assay: Inhibition of tyrosinase at 5 uM
T2 sequence (whole entry): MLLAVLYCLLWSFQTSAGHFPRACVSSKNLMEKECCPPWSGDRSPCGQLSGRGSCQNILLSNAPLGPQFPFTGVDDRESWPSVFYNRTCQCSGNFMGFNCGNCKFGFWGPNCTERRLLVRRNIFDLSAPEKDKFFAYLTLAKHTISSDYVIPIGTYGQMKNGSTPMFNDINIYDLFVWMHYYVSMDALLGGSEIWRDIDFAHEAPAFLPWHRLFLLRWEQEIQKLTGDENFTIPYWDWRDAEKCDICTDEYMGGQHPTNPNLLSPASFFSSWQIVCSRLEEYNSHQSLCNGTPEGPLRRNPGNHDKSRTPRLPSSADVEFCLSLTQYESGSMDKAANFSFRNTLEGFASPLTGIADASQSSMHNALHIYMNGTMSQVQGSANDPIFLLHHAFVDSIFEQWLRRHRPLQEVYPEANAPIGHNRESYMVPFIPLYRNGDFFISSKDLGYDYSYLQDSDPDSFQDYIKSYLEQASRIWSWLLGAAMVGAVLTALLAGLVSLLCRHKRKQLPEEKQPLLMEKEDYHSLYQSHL

[18] = Anti-aging activity in human dermal fibroblasts assessed as rate of procollagen formation at 0.0001 weight % concentration relative to retinol; type: functional, Fibroblast
Fibroblast [19] = assay: Increase of collagen synthesis in human dermal fibroblasts at 5 uM; type: functional
[20] = Thermal stability at 40 degC assessed as compound degradation after 4 weeks by HPLC; type: physicochemical
[21] = Toxicity against mouse B16/F10 cells assessed as cell viability at 10 ppm relative to control; type: cell-based; conditions: read-out: Activity
[22] = biological target: T1, Tyrosinase (Mus musculus); assay: Inhibition of tyrosinase activity in mouse B16/F10 cells at 10 ppm relative to control; type: cell-based
B16-F10 [23] = assay: Inhibition of rate of melanin formation in mouse B16/F10 cells at 10 ppm relative to control; type: functional
[24] = Anti-aging activity in human dermal fibroblasts assessed as rate of procollagen formation at 0.005 weight % concentration relative to retinol; type: functional, Fibroblast
[25] = Antioxidant activity assessed as free radical scavenging activity at 5 uM; type: functional
[26] = Anti-aging activity in human dermal fibroblasts assessed as expression rate of procollagen type 1 formation at 200 uM relative to control; type: functional, Fibroblast
[27] = Antioxidant activity assessed as free radical scavenging activity at 10 uM; type: functional
[28] = Toxicity against human dermal fibroblasts assessed as cell viability at 200 uM relative to control; type: cell-based, Fibroblast; conditions: read-out: Activity
[29] = Inhibition of elastase at 10 uM
[30] = Inhibition of elastase at 5 uM
[31] = Anti-aging activity in human dermal fibroblasts assessed as rate of procollagen formation at 0.0002 weight % concentration relative to retinol; type: functional, Fibroblast
[32] = Toxicity against human dermal fibroblasts assessed as cell viability at 5 uM relative to control; type: cell-based, Fibroblast; conditions: read-out: Activity
Fibroblast [33] = assay: Skin whitening activity in […] assessed as inhibition of melanin formation at 0.0002 weight % concentration relative to resveratrol; type: functional
[34] = Anti-aging activity in human dermal fibroblasts assessed as inhibition rate of MMP1 expression at 5 uM relative to control; type: functional; conditions: Fibroblast
[35] = Anti-aging activity in human dermal fibroblasts assessed as expression rate of procollagen type 1 formation at 5 uM relative to control; type: functional, Fibroblast

## CC(/C=C/C1=CCCCC1(C)C)=C\C=C\C(C)=C\COC(=O)c1c(O)cccc1O
[1]
  viability at 1 µM: 88.1%
[2]
  inhibition: 45.4%
[3]
  inhibition at 1 µM: -63%
[4]
  Activity: 102%
[5]
  viability at 5 µM: 102%
[6]
  IC50: 14 µM
B16-F10 [7]
  inhibition at 5 µM: 12.7%
[8]
  Activity: 85.5%
Fibroblast [9]
  inhibition (INH): 112%

## CC(/C=C/C1=CCCCC1(C)C)=C\C=C\C(C)=C\COC(=O)c1cc(O)c2ccccc2c1O
[4]
  Activity: 37%
[6]
  IC50: 420 µM
Fibroblast [9]
  inhibition (INH): 18%

## CC(/C=C/C1=CCCCC1(C)C)=C\C=C\C(C)=C\COC(=O)c1ccc(O)cc1O
[10]
  Activity: 26%
[6]
  IC50: 120 µM
Fibroblast [9]
  inhibition (INH): 41%

## O=C(O[C@@H]1Cc2c(O)cc(O)cc2O[C@@H]1c1cc(O)c(O)c(O)c1)c1cc(O)c(O)c(O)c1 [EPIGALOCATECHIN GALLATE]
[11]
  inhibition at 10 µM: 46.7%
[12]
  viability at 10 µM: 95.2%

## CC(/C=C/C1=CCCCC1(C)C)=C\C=C\C(C)=C\COC(=O)c1cc(O)ccc1O
[2]
  inhibition: 31.3%
[4]
  Activity: 55%
[5]
  viability at 5 µM: 99.7%
[11]
  inhibition at 10 µM: -32.2%
[6]
  IC50: 14 µM
B16-F10 [7]
  inhibition at 5 µM: 25.8%
[12]
  viability at 10 µM: 91.8%
[13]
  Activity: 78.7%
Fibroblast [9]
  inhibition (INH): 95%

## CC(=O)Oc1ccccc1C(=O)OC/C=C(C)/C=C/C=C(C)/C=C/C1=CCCCC1(C)C
[6]
  IC50: 150 µM
[14]
  Activity: 61%
Fibroblast [15]
  inhibition (INH): 32%

## OC[C@H]1O[C@@H](Oc2ccc(O)cc2)[C@H](O)[C@@H](O)[C@@H]1O [ARBUTIN]
Fibroblast [16]
  inhibition at 5 µM: 5.5%
[17]
  inhibition: -1.5%

## COc1cccc(C(=O)OC/C=C(C)/C=C/C=C(C)/C=C/C2=CCCCC2(C)C)c1O
[2]
  inhibition: 38.1%
[4]
  Activity: 116%
[5]
  viability at 5 µM: 107%
[11]
  inhibition at 10 µM: 16.9%
[6]
  IC50: 27 µM
B16-F10 [7]
  inhibition at 5 µM: 16.2%
[12]
  viability at 10 µM: 126%
[13]
  Activity: 70%
Fibroblast [9]
  inhibition (INH): 22%

## CC(/C=C/C1=CCCCC1(C)C)=C\C=C\C(C)=C\COC(=O)c1cccc(O)c1O
[1]
  viability at 1 µM: 71.8%
[2]
  inhibition: 36.7%
[18]
  Activity: 66%
[5]
  viability at 5 µM: 97%
[6]
  IC50: < 10 µM
B16-F10 [7]
  inhibition at 5 µM: 18.6%
Fibroblast [9]
  inhibition (INH): 105%

## CC1=C(/C=C/C(C)=C/C=C/C(C)=C/CO)C(C)(C)CCC1 [RETINOL]
Fibroblast [19]
  Activity: 33.4%
[6]
  IC50: 50 µM
[20]; read-out: Activity
  degraded at 672 h: 70%

## COc1cc(NC(C)=O)cc(C(=O)OC/C=C(C)/C=C/C=C(C)/C=C/C2=CCCCC2(C)C)c1O
[10]
  Activity: 15%
[6]
  IC50: < 10 µM

## COc1cc(/C=C/C(=O)Oc2cc(C)ccc2C(C)C)cc(OC)c1OC
[21]
  viability at 10 ppm: 95.4%
[22]
  inhibition: 46.9%
B16-F10 [23]
  inhibition at 10 ppm: 39.3%

## CC1=C(/C=C/C(C)=C/C=C/C(C)=C/C(=O)O)C(C)(C)CCC1 [TRETINOIN]
[11]
  inhibition at 10 µM: 59.2%
[12]
  viability at 10 µM: 105%

## COc1cc(O)c(C(=O)OC/C=C(C)/C=C/C=C(C)/C=C/C2=CCCCC2(C)C)c(O)c1
[2]
  inhibition: 41.9%
[4]
  Activity: 55%
[5]
  viability at 5 µM: 102%
[11]
  inhibition at 10 µM: -17.4%
[6]
  IC50: 14 µM
B16-F10 [7]
  inhibition at 5 µM: 9.5%
[12]
  viability at 10 µM: 92.6%
[13]
  Activity: 89.2%
Fibroblast [9]
  inhibition (INH): 95%

## COc1ccc(O)c(C(=O)OC/C=C(C)/C=C/C=C(C)/C=C/C2=CCCCC2(C)C)c1
[10]
  Activity: 81%
[6]
  IC50: 570 µM
Fibroblast [9]
  inhibition (INH): 30%

## COc1cccc(O)c1C(=O)OC/C=C(C)/C=C/C=C(C)/C=C/C1=CCCCC1(C)C
[24]
  Activity: 54%
[6]
  IC50: 230 µM
Fibroblast [9]
  inhibition (INH): 28%

## O=C1O[C@H]([C@@H](O)CO)C(O)=C1O [ASCORBIC ACID]
[25]
  Activity: 19.1%
[26]
  Activity: 127.5%
[27]
  Activity: 38.6%
[28]
  viability at 200 µM: 95.4%

## Oc1ccc(/C=C/c2cc(O)cc(O)c2)cc1 [RESVERATROL]
Fibroblast [16]
  inhibition at 5 µM: 25.5%
[25]
  Activity: 5.6%
[27]
  Activity: 16.7%
[6]
  IC50: 900 µM
[17]
  inhibition: 36.2%

## CC(/C=C/C1=CCCCC1(C)C)=C\C=C\C(C)=C\COC(=O)c1ccccc1O
[6]
  IC50: 150 µM
[14]
  Activity: 46%
Fibroblast [15]
  inhibition (INH): 34%

## C[C@H]1[C@H](C)CC[C@]2(C(=O)O)CC[C@]3(C)C(=CC[C@@H]4[C@@]5(C)CC[C@H](O)C(C)(C)[C@@H]5CC[C@]43C)[C@H]12 [URSOLIC ACID]
[29]
  inhibition: 14.1%
[6]
  IC50: 3.5 µM
[30]
  inhibition: 10.3%

## CC(/C=C/C1=CCCCC1(C)C)=C\C=C\C(C)=C\COC(=O)c1cc(O)c(O)c(O)c1
Fibroblast [16]
  inhibition at 5 µM: 18.6%
[29]
  inhibition: 15.3%
[25]
  Activity: 31.1%
[2]
  inhibition: 49.6%
[31]
  Activity: 91%
Fibroblast [19]
  Activity: 13.5%
[5]
  viability at 5 µM: 83.9%
[27]
  Activity: 62.8%
[32]
  viability at 5 µM: 84.2%
[6]
  IC50: 35 µM
Fibroblast [33]
  inhibition (INH): 73%
[34]
  inhibition at 5 µM: -19.3%
B16-F10 [7]
  inhibition at 5 µM: 27.5%
[35]
  Activity: 115.9%
[17]
  inhibition: 2.5%
[20]; 672 h
  Stability: Stable
[30]
  inhibition: 12.3%
